Read-outs that look alike come from different tables or passages of the source. One block for each molecule: values may come before it.
Key:
[1] = target: T1, PAF receptor on washed human platelets (Homo sapiens, UniProt P25105); assay: [^3 H]PAF-receptor binding to vital human blood platelets; conditions: vital human thrombocytes
T1 construct: endogenous in cells; host or cells: human blood platelets (thrombocytes) from healthy donors, purified by Sepharose CL-2B chromatography
Experimental: [^3 H]PAF-Receptor-Bonding to Vital Human Blood Platelets
The competitive interaction of test substances (here PAF-antagonists) with the known interaction of the radioligand [^3 H]PAF to the same receptor is determined. The binding studies are carried out on vital human thrombocytes. Blood samples from healthy donors were diluted with ACD-buffer and centrifuged (15 min., 160×g). The platelet-rich plasma is purified by chromatography on Sepharose CL-2B [using HEPES-buffer, pH 7.4 at 20° C. for eluting].
Defined quantities [e.g. 800 μl] of the platelet suspension were incubated for 90 minutes at ambient temperature, i.e. mixed with: a) a 30 picomolar [^3 H]PAF-solution diluted with buffer. b) a 30 picomolar [3 H] PAF-solution which simultaneously contains a μ-molar (unlabelled) PAF-solution, c) with the 30 picomolar [^3 H]PAF-solution and the solutions of the test substances (different concentrations) d) used to determine total binding, e) used to determine non-specific binding.
The reaction was stopped by vacuum filtration. The filters with the blood platelets were mixed with scintillation liquid and the residual radioactivity measured in a counter.
The specific binding is obtained from the total binding minus the nonspecific binding. Either the IC50 values (i.e. the concentration of test substance which displaces 50% of the radioligand--in this case [^3 H] PAF--from the receptor) is determined and this is specified, or the Ki -values are calculated from this. This may be done by computer-aided calculation using an iteration process of the binding curves. IC50 and Ki-values are a measurement of the receptor affinity of the test substance. Lower values indicate a higher affinity.

[2] = target: T1, PAF receptor on washed human platelets; conditions: as known from the prior art (EP 367 110); read-out: binding value Ki of prior art compound; cited from earlier work

T1 sequence (P25105 whole entry): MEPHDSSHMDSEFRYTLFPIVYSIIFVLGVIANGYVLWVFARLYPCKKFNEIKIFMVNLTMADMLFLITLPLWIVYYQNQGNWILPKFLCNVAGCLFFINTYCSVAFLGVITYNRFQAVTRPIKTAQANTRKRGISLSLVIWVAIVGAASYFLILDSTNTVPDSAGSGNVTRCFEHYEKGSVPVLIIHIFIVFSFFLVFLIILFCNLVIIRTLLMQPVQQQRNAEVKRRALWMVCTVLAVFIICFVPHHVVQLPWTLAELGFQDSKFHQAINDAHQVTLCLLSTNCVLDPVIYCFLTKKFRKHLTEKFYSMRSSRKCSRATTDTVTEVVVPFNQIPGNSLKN

Molecule: COc1ccc(C(=O)N2CCc3c(sc4c3C(c3ccccc3Cl)=NC(C)c3nnc(C)n3-4)C2)cc1 (centres unmarked) [Example 29]
Ki [1]: 7.8 nM

Molecule: Cc1nnc2n1-c1sc3c(c1C(c1ccccc1Cl)=NC2C)CCN(C(=O)c1ccc(C(F)(F)F)cc1)C3 (centres unmarked) [Example 67]
Ki [1]: 2.8 nM

Ki [1]: 1.8 nM
Molecule: 3-(4-Isobutylbenzoyl)-6-(2-chlorophenyl)-8,11-dimethyl-2,3,4,5-tetrahydro-4H-pyrido[4,3:4',5']thieno-[3,2-f][1,2,4]triazolo[4,3-a]1,4diazepine [Example 2]

Molecule: Cc1nnc2n1-c1sc3c(c1C(c1ccccc1Cl)=NC2C)CCN(C(=O)c1ccc(C(C)(C)C)cc1)C3 (centres unmarked) [Example 25]
Ki [1]: 2.4 nM

Molecule: Cc1nnc2n1-c1sc3c(c1C(c1ccccc1Cl)=NC2)CCN(C(=O)C1CC1)C3 [3-cyclopropylcarbonyl-6-(2-chlorophenyl)-11-methyl-2,3,4,5-tetrahydro-4H-pyrido-[4,3:4',5']thieno[3,2-f][1,2,4]triazolo[4,3-a]-1,4-diazepine]
Ki [2]: 13 nM

Molecule: Cc1nnc2n1-c1sc3c(c1C(c1ccccc1Cl)=NC2C)CCN(C(=O)c1ccc(Cl)cc1)C3 (centres unmarked) [Example 1b]
Ki [1]: 71 nM

Molecule: Cc1nnc2n1-c1sc3c(c1C(c1ccccc1Cl)=NC2C)CCN(C(=O)c1ccc(Cl)cc1)C3 (centres unmarked) [Example 1, 3-(4-Chlorobenzoyl)-6-(2-chlorophenyl)-8,11-dimethyl-2,3,4,5-tetrahydro-4H-pyrido[4,3 :4',5']thieno-[3,2-f][1,2,4]triazolo[4,3-a]-1,4-diazepine]
Ki [1]: 2.9 nM

Molecule: Cc1ccc(C(=O)N2CCc3c(sc4c3C(c3ccccc3Cl)=NC(C)c3nnc(C)n3-4)C2)cc1 (centres unmarked) [Example 20]
Ki [1]: 22 nM

Molecule: Cc1nnc2n1-c1sc3c(c1C(c1ccccc1Cl)=NC2C)CCN(C(=O)C(C)(C)C)C3 (centres unmarked) [Example 73]
Ki [1]: 10 nM

Molecule: CCc1ccc(C(=O)N2CCc3c(sc4c3C(c3ccccc3Cl)=NC(C)c3nnc(C)n3-4)C2)cc1 (centres unmarked) [Example 82]
Ki [1]: 2.5 nM

Molecule: Cc1nnc2n1-c1sc3c(c1C(c1ccccc1Cl)=NC2C)CCN(C(=O)c1ccc(Cl)cc1)C3 (centres unmarked) [Example 1a]
Ki [1]: 1.9 nM

Reference: patent US5753647A, “Acylamino-substituted hetrazepines” (Boehringer Ingelheim KG, priority 1991, dated 1998)
